Laboratory results from US7713713B2, “Polypeptide having intracellular calcium ion indicator function” (Kyoto University, priority 2005, dated 2010).
Square brackets hold non-standard residues; d marks the D form. Peptide text beside a SMILES is read from it. Nle = CCCC[C@H](N)C(=O)O

Tests used:
calpain = test: Calpain inhibitor test: Fura-2 and EYFP fluorescence in primary cultures of cerebellum expressing F2C, potassium stimulation; assay type: cell-based, rat; settings: ALLN 100 μM, ALLM 50 μM; for percentage of F535 EYFP maximum fluorescence change to Fura-2 maximum ratio change versus control free of calpain inhibitors: p>0.28; for percentage of F535 EYFP maximum fluorescence change to Fura-2 maximum ratio change (mean ± S.E.M.): preincubation 1 hr, potassium stimulation, n=10 cells
Experimental: (§1) The primary culture of cerebellum was incubated at 37° C., in 5% CO2 and 95% O2 atmosphere. The cells on a cover glass slip were infected with Sindbis-F2C 24 hrs before the incubation with Fura-2/AM (Molecular Probes, Eugene, Oregon, U.S.A.). This glass slip was transferred to a new dish filled with an external solution (ACSF, artificial cerebro-spinal fluid; 155 mM NaCl, 2.5 mM CaCl2, 1 mM MgCl2, 10 mM, HEPES, 17 mM glucose and 5 mM KOH and adjusted to pH 7.4). Fura-2/AM was added to a final concentration of 20 μM, and further incubated for 30 min at 37° C. Fura-2/AM (10 mM) stock was dissolved in DMSO. Cerebella cultures were transferred under the upright microscope equipped with a cooled CCD camera, and the image was prepared (ORCA-ER on Aquacosmos, Hamamatsu Photonics, Hamamatsu, Japan). For Fura-2 imaging, excitation light at wavelength 340 nm (10 nm band widths, 100% transmission) and excitation light at wavelength 380 nm (10 nm band widths, 100% transmission) were alternately applied, and fluorescence was captured at 510 nm and at longer wavelength. When F2C fluorescence was measured simultaneously, excitation light at 440 nm (10 nm band widths, 100% transmission) was applied and the fluorescence at a wavelength longer than 510 nm was captured. This fluorescence corresponds to EYFP. When FRET was measured from brain slice preparations or from cerebella cultures, neurons were excited at 440 nm (20 nm band width 60% transmission, XF1071 Omega Optical) with a dichroic mirror at 435 ram (XF2034 Omega Optical) and the fluorescence was monitored through 480 nm (30 nm bandwidth 75% transmission, XF3075 Omega Optical) for ECFP and 535 nm (25 nm bandwidth 70% transmission, XF3079 Omega Optical+50% ND filter) for EYFP.
To test the inhibition of calpain activities, calpain inhibitor-1 (ALLN, Calbiochem) and calpain inhibitor-2 (ALLM, Calbiochem) were adopted and Fura-2 fluorescence and EYFP fluorescence measurements were similarly conducted. The primary cultures of cerebellum were preincubated in ACSF containing ALLN (100 μM in DMSO), ALLM (50 μM in DMSO) or a combination of both for 1 hr. The same concentration of DMSO was added to ACSF as a control.

[1] = test system: cochlear nucleus neurons in brain slices; test: FRET fluorescence ratio (ECFP/EYFP) in cochlear nucleus neurons of brain-stem slices after in vivo Sindbis injection, KCl stimulation; assay type: cell-based, rat
Experimental: Young Wistar rats (9-10 days old) were anesthetized with chloral hydrate (0.3 mg/g body weight). Then, the head of rat was fixed on a stereotaxis stage with a pair of ear bars and a nose clamp (SR-5N, Narishige, Tokyo, Japan). The head skin was sagittally incised and a small hole was made through the skull to expose the cerebellum. A micropipette was inserted through cerebellum, and a suspension of Sindbis virus encoding F2C protein (Sindbis-F2C) was injected (0.5-1 μl) into the brainstem by applying a mild positive pressure to the micropipette with the mouth. The incised part of the skin was then sutured and the rat was returned to the mother after recovery from anesthesia. […]
(§2) The primary culture of cerebellum was incubated at 37° C., in 5% CO2 and 95% O2 atmosphere. […] For Fura-2 imaging, excitation light at wavelength 340 nm (10 nm band widths, 100% transmission) and excitation light at wavelength 380 nm (10 nm band widths, 100% transmission) were alternately applied, and fluorescence was captured at 510 nm and at longer wavelength. When F2C fluorescence was measured simultaneously, excitation light at 440 nm (10 nm band widths, 100% transmission) was applied and the fluorescence at a wavelength longer than 510 nm was captured. This fluorescence corresponds to EYFP. […]

[2] = test system: cerebellar Purkinje cells; test: FRET fluorescence ratio (ECFP/EYFP) in cultured Purkinje cells expressing the indicator, KCl stimulation; assay type: cell-based, rat
Experimental: Purkinje cells were cultured in the same manner as reported previously (Weber, A. et al., Brain Res., 311, 119-130, 1984/Hirano, T. et al., Proc. Natl. Acad. Sci. U.S.A., 83, 1945-1949, 1986). In short, cerebella were dissected from Wistar rat fetus (about 20 days of fetal stage), and meninges were removed. The cerebella were incubated at 20° C. for 4 min in 1% trypsin (Invitrogen, California, U.S.A.)/0.05% DNase (Sigma, Missouri, U.S.A.) solution containing 137 mM NaCl, 5 mM KCl, 7 mM Na2PO4, and 25 mM HEPES (pH 7.2). After washing with Ca^2+- and Mg^2+-free Hanks' balanced salt solution (Invitrogen) three times, the tissue was dispersed by trituration with a fire polished Pasteur pipette in Ca^2+-free Hanks' balanced salt solution containing 0.05% DNase and 12 mM MgSO4. The cell suspension was centrifuged at 180×g at room temperature and the pelletized cells were resuspended at a concentration of 10^6 cells per 1 ml in a defined medium, which facilitates the survival of neurons (Weber, A. et al., Brain Res., 311, 119-130, 1984/Fischer, G. et al., Neurosci Lett, 28, 325-329, 1982). 2 ml of this cell suspension was plated on a Petri dish containing several heat-sterilized glass coverslips coated with 0.01% poly-L-lysin (Sigma). This cell culture was incubated at 37° C. in 5% CO2. The cells on the glass coverslips were used for infection with Sindbis virus. […]
as §2

Ca^2+ = test: Simultaneous Fura-2 and F2C fluorescence measurement, Ca2+ titration and kinetics; assay type: cell-based, rat
Experimental: as §1
Rmax=2.38 and Rmin=0.58 were obtained by measurement from the Purkinje cell membrane loaded with Fura-2 perforated with 1 μM ionomycin, after equilibration with normal ACSF ([…]) for Rmax and equilibration with 0 mM CaCl2, 10 mM EGTA ACSF for Rmin. […]

μ-calpain = molecular target: T1, μ-calpain (Homo sapiens, UniProt P07384); test: Western blotting for cleavage of the fusion protein by calpain; assay type: biochemical; settings: incubated with purified μ-calpain in Ca-EGTA buffer (data not shown)
T1 construct: purchased Calbiochem
T1 sequence (P07384 1-714): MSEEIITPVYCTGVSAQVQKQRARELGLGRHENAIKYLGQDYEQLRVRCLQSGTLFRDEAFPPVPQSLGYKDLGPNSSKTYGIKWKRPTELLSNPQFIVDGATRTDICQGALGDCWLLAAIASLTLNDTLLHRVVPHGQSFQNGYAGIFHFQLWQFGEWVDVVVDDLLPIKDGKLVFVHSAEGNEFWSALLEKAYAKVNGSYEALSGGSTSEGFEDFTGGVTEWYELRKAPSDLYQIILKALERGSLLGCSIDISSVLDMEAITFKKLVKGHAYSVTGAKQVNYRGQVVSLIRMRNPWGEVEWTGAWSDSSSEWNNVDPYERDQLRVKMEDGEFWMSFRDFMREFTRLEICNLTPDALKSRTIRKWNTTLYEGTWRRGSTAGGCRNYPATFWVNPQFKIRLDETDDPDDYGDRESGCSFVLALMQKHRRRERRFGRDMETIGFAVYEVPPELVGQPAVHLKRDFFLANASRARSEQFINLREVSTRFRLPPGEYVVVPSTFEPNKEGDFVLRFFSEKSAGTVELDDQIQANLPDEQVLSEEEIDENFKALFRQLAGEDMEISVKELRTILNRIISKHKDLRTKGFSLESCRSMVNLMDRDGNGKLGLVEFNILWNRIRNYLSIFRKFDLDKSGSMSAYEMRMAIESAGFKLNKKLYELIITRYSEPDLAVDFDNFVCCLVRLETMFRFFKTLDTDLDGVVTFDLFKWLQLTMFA
T1 sequence (P04632 1-268 partner): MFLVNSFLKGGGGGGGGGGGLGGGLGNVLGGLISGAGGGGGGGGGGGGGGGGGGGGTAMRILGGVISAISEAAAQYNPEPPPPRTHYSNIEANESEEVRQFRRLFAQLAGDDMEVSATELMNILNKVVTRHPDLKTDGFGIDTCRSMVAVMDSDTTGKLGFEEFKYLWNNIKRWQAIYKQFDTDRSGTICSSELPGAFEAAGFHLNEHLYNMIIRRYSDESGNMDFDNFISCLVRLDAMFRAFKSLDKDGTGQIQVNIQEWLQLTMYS
Experimental: To obtain cell lysate, cells were pelletized and homogenized in EGTA buffer (10 mM EGTA-Na, 10 mM HEPES-K, 150 mM NaCl) or Ca-EGTA buffer (10 mM CaCl2, 10 mM EGTA-Na, 10 mM HEPES-K, 150 mM NaCl). The Ca^2+ concentration was finally adjusted to 20 μM. The cell lysates contained the protease inhibitor cocktail (Nacalai Tesque). The cell lysates were incubated at 30° C. for 30 min or 60 min. In some experiments, cell lysates were incubated with a purified μ-calpain (Calpain I, Calbiochem, California, U.S.A.) at 30° C. for 30 min or 60 min. These cell lysates were centrifuged at 20,000×g for 20 min and the supernatants were fractionated. The supernatants were loaded onto 10% SDS-PAGE gels. Western blotting was carried out according to the method of Towbin et al. (Towbin, H. et al., Proc. Natl. Acad. Sci. U.S.A., 76, 4350-4354, 1979), using mouse anti-GFP antibody for detecting F2C cleavage (dilution rate 1:1000, MBL, Nagoya, Japan) and anti-PKC α antibody (dilution rate 1:500, Upstate, N.Y., U.S.A.) to confirm calpain activity.

Kd (Ca^2+; titration of F2C, pH 7.4, read-out: apparent Kd value for Ca^2+) [µM] | fragmented protein signal in Western blot (cleavage by calpain) (μ-calpain) | Compound | percentage of F535 EYFP maximum fluorescence change to Fura-2 maximum ratio change versus control free of calpain inhibitors (calpain) | percentage of F535 EYFP maximum fluorescence change to Fura-2 maximum ratio change (mean ± S.E.M.) (calpain) [%] | time over which reversible changes of the ECFP/EYFP fluorescence ratio were observed ([1]; 10 mM KCl stimulation, cochlear nucleus neurons, FIG. 9) | change of FRET fluorescence ratio on exposure to high KCl solution ([1]; brainstem slices, 15 mM KCl applied 3 times) | ECFP/EYFP fluorescence ratio change ([2]; Purkinje cells 14DIV exposed to 7.5 mM KCl (basal 5 mM)) [fold] | ECFP/EYFP fluorescence ratio change ([2]; Purkinje cells 14DIV exposed to 10 mM KCl (basal 5 mM)) [fold] | ECFP/EYFP fluorescence ratio change ([2]; Purkinje cells 14DIV exposed to 15 mM KCl (basal 5 mM)) [fold] | speed of Ca^2+ response (20-80% rise time of F535) compared with Fura-2 (F340/F380) (Ca^2+; n=240 cells, various CaCl2 and KCl conditions) | Hill coefficient (Ca^2+; titration of F2C, pH 7.4)
 |  | CSCC[C@@H](C=O)NC(=O)[C@H](CC(C)C)NC(=O)[C@H](CC(C)C)NC(C)=O [ALLM] (Ac-Leu-Leu-Met-aldehyde) | not different | 35.9 ± 1.4 |  |  |  |  |  |  | 
 |  | CCCC[C@@H](C=O)NC(=O)[C@H](CC(C)C)NC(=O)[C@H](CC(C)C)NC(C)=O [ALLN] (Ac-Leu-Leu-[Nle]-aldehyde) | not different | 37.1 ± 2.1 |  |  |  |  |  |  | 
0.15 | not detected | F2C: Fusion protein (SEQ ID NO:6): GAP43 palmitoylation signal, ECFP, two α-spectrin calpain sensitive sequences, EYFP |  |  | at least 200 min | changed reversibly | 1.03 | 1.39 | 1.78 | almost the same speed | 4
